For 81 compounds, RP-LC retention time results are on record in the METLIN SMRT retention time set (Domingo-Almenara et al. 2019).

The nature of the series: gradient 5% acetonitrile 3 min, to 50% in 2 min, to 85% in 15 min, held 3 min, 100 µL/min. To be noted: column: Zorbax Extend-C18 2.1 x 50 mm; eluents: water / acetonitrile, 0.1% formic acid. In short, it runs like this: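 Using water and acetonitrile that each contained 0.1% formic acid, mixtures of ~100 pure standards were separated at 100 μL/min on a Zorbax Extend-C18 column (2.1 × 50 mm, 1.8 μm). The HPLC fed a quadrupole time-of-flight mass spectrometer working in positive and negative ionization mode, with dead and dwell volumes of 40 μL and 900 μL. Data were acquired over 3 months. Retention time was read from computationally picked adduct peaks after manual inspection of each.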
`COc1ccc(N2C=C(C#N)S(=O)(=O)c3cc(F)ccc32)c(OC)c1` came in with an RP-LC retention time of 893 s.
`CCCCN(C(=O)c1nc(C)n(C2CCN(S(C)(=O)=O)CC2)c1C)c1ccccc1`: the RP-LC retention time came out at 666 s.
`O=C(NC1CCCCCC1)C1CCN(S(=O)(=O)c2cc(-c3noc(C4CC4)n3)cs2)CC1` showed an RP-LC retention time of 1040 s.
On to `Cc1cc(C2CCCN2C(=O)Cc2cccc(Cl)c2)no1` (stereo unspecified), for which the RP-LC retention time is 816 s.
Consider `CCOC(=O)NCCS(=O)(=O)N1CCN(c2ccccc2F)CC1`, for which the RP-LC retention time turned out to be 774 s.
Consider `CCOC(=O)c1cc(OCC)c2c(ccc3ccccc32)n1`, for which the RP-LC retention time came out at 1080 s.
`CCOC(=O)C1=C(CN(CC)Cc2ccccc2)NC(=O)NC1c1cccs1` (stereo unspecified) displayed an RP-LC retention time of 674 s.
Compound `COC(=O)CSC1=C(C#N)C(c2ccsc2)CC(=O)N1` (stereo unspecified) had an RP-LC retention time of 707 s.
Turning to `O=C(Nc1ccc(F)c(F)c1)C1CCc2nc(N3CCOCC3)ncc2C1` (stereo unspecified), the RP-LC retention time is 742 s.
Take `CCc1nc2nccc(-c3ccc(OC)c(OC)c3)n2n1`: the RP-LC retention time was 702 s.
Then `CCCc1ccc(S(=O)(=O)N2CCC(C(=O)NCCc3csc(-c4ccccc4)n3)CC2)cc1`, with 1100 s; and `Cc1cccc(S(=O)(=O)N2CC3CN(C(=O)C4CCCO4)CC(C2)O3)c1` (stereo unspecified), with 688 s.
The compound `O=C(CCc1ccccc1)Nc1ccc2c(c1)N(C(=O)c1ccco1)CCC2` came in with an RP-LC retention time of 871 s.
Compound `COCCNc1nc(Nc2ccc(C)c(C)c2)c2nccnc2n1` came in with an RP-LC retention time of 597 s.
In turn, `COC[C@@H]1CN(S(=O)(=O)c2ccccc2F)C[C@H]1c1ccncc1` yielded an RP-LC retention time of 745 s.
As to `O=S(=O)(Nc1ccc(F)cc1F)c1ccc(-c2nnc(C3CCC3)o2)o1`, the RP-LC retention time was found to be 879 s.
In turn, `O=c1c2nc(-c3ccc(F)cc3F)cn2ccn1-c1cccc(Cl)c1` registered an RP-LC retention time of 949 s.
The result for `CCOc1ncccc1CNC(=O)c1ccc2cc[nH]c2c1` reads 756 s.
Regarding `O=C(Nc1c(-c2ccc(F)cc2)nc2ccccn12)c1cccc(C(F)(F)F)c1`, the RP-LC retention time turned out to be 748 s.
Regarding `COc1ccc(S(=O)(=O)NCCc2cn(C)c3ncccc23)cc1`, the RP-LC retention time is 696 s.
The compound `CCc1ccc2ncc(C#N)c(N3CCC(C(=O)NCc4ccc(F)cc4)CC3)c2c1` showed an RP-LC retention time of 710 s.
Then `O=S(=O)(c1ccc2c(c1)CCC2)N1CCCn2nc(-c3cccs3)cc2C1`, with 1060 s; and `CCc1cccc(NC(=O)C2CCN(S(=O)(=O)c3cn(C)cn3)CC2)c1`, with 732 s; and `CC(C)Cc1ccc(S(=O)(=O)N2CCCC(CNC(=O)c3ccccc3)C2)cc1` (stereo unspecified), with 1120 s.
Then `COc1ccc(C(=O)N2CCC3(CC2)N=C(c2ccc(Br)cc2)C(=O)N3)cc1`, with 889 s.
The compound `O=C(Cn1c(=O)c2cc(C3CC3)nn2c2ncccc21)Nc1ccc(F)c(F)c1` displayed an RP-LC retention time of 792 s.
On to `Cn1nc(C2CC2)nc1C1CN(C(=O)Cc2ccc(S(C)(=O)=O)cc2)C1`, for which the RP-LC retention time was 611 s.
In turn, `CCc1ccc(NC(=O)N2CCC(OC3CCN(S(C)(=O)=O)CC3)CC2)cc1` gave an RP-LC retention time of 770 s.
`COc1cccc(-c2noc(Cn3ccn(-c4ccccc4OC)c(=O)c3=O)n2)c1` came in with an RP-LC retention time of 810 s.
Then `CCOC(=O)Cc1csc(NC(=O)Cc2cc(-c3cc4ccccc4o3)on2)n1`, with 891 s; and `COc1ccc(NC2=NC(C)(CO)CS2)cc1` (stereo unspecified), with 638 s.
Then `CCCN1C(=O)c2c(C(=O)NCCc3ccccc3)ncn2CC1(C)C(=O)NCCC(C)C` (stereo unspecified), with 891 s; and `CCCCNC(=O)Cc1c(OC)ccc2cc(Br)ccc12`, with 947 s; and `O=C(c1ccccc1F)N1CCc2nc(-c3ccccc3)ncc2C1`, with 883 s.
Then `O=C(CCc1nnn2c1CN(C(=O)Nc1cccc(F)c1)CC2)NC1CC1`, with 664 s.
The compound `O=C(CSc1nnc(NC(=O)c2cccc([N+](=O)[O-])c2)s1)Nc1nccs1` registered an RP-LC retention time of 702 s.
In the case of `O=C(NCCc1c[nH]c2ccc(F)cc12)c1ccc(F)cc1-n1cnnn1`, the RP-LC retention time was 756 s.
In turn, `CCCn1c(C)cnc1CC1CCN(S(=O)(=O)c2ccc3c(c2)OCCO3)CC1` displayed an RP-LC retention time of 560 s.
In turn, `O=C(NC1CCCN(c2cc(-c3ccc(F)cc3)[nH]n2)C1)c1ccc2c(c1)OCO2` (stereo unspecified) returned an RP-LC retention time of 796 s.
Then `O=c1n(CC2CC2)nc2n1CCC(NS(=O)(=O)Cc1ccccc1)CC2` (stereo unspecified), with 704 s; and `Cc1ccc(-n2cc(C(=O)N3CCSCC3)nn2)cc1C`, with 852 s; and `CCc1nnc2cc(N3CCN(C(=O)c4ccc(OC)cc4)CC3)cnn12`, with 615 s.
Then `O=C(Nc1ccc2c(c1)OCCO2)N1CCc2nc(-c3ccccc3)ncc2C1`, with 848 s; and `Cc1nc(CCNC(=O)C2CCN(C(=O)c3ccc(F)cc3)CC2)cs1`, with 826 s; and `Cc1cc2nc(C(=O)Nc3cccc(C)c3C)cc(C)n2n1`, with 1020 s.
Compound `CCCCc1nn2c(=O)cc(CN3CCN(c4ncccn4)CC3)nc2s1` yielded an RP-LC retention time of 604 s.
For the compound `Cc1nnc(-c2coc(S(=O)(=O)N3CCN(C4CCCCC4)CC3)c2)o1`, the RP-LC retention time was 615 s.
For the compound `CN1C(=O)c2cc(C(=O)NCCN3CCCCC3)nn2CC1(C)C(=O)NCc1ccccc1` (stereo unspecified), the RP-LC retention time is 597 s.
For `Cc1ccc2[nH]cc(CCN3CC(C(=O)NC4CCCCC4)CC3=O)c2c1` (stereo unspecified), the RP-LC retention time was 819 s.
Consider `COc1ccc(OC)c(NC(=O)c2nc(N(C)C)c3c(C)cc(C)nc3n2)c1`, for which the RP-LC retention time came to 676 s.
`COc1ccc(Cl)cc1NC(=O)CSc1ccc(NC(=O)c2ccco2)nn1` displayed an RP-LC retention time of 851 s.
In the case of `O=C(O)c1cnc(N2CCCCC2)nc1-c1ccncc1`, the RP-LC retention time turned out to be 636 s.
In turn, `CCCCN(C)Cc1nc(-c2ccc(N3CCOCC3)nc2)no1` had an RP-LC retention time of 594 s.
As for `O=C(c1nnc(-c2ccc(S(=O)(=O)N3CCCC3)cc2)o1)N1CCCC1`, the RP-LC retention time worked out at 764 s.
Then `CCOCCCNC(=O)CN1c2ccc(F)cc2-c2ccccc2S1(=O)=O`, with 820 s.
The compound `CCn1ccc(NC(=O)c2ccccc2C)n1` returned an RP-LC retention time of 720 s.
Consider `Cc1ccc(-n2c(N3CCC(C(=O)NCC4CC4)CC3)nc3ccsc3c2=O)cc1`, for which the RP-LC retention time amounted to 808 s.
Take `CC1CCN(S(=O)(=O)N2CCCC(C(=O)NCc3ccc(Cl)cc3)C2)CC1` (stereo unspecified): the RP-LC retention time was 1050 s.
Compound `COc1ccc2c(c1)CC(C(=O)NCCCN1CCN(C3CCCCC3)CC1)CO2` (stereo unspecified) gave an RP-LC retention time of 576 s.
Then `CN1C(=O)Cc2cc(NC(=O)CN3C(=O)c4ccccc4C3=O)ccc21`, with 628 s.
`CCOCCOC1CCN(C(=O)c2sccc2C)CC1` registered an RP-LC retention time of 741 s.
`CCSc1nnc(NC(=O)c2ccc(OC)c([N+](=O)[O-])c2)s1` registered an RP-LC retention time of 802 s.
With `CC(=O)N1CCCC(c2nc(CCNC(=O)C3CCC3)cs2)C1` (stereo unspecified), the RP-LC retention time turned out to be 625 s.
Consider `Cc1oc(-c2[nH]ncc2C(=O)N2CCCC2)cc1S(=O)(=O)NCc1cccc(F)c1`, for which the RP-LC retention time amounted to 706 s.
`CCOc1ccccc1NC(=O)Cn1cccc(-c2nc(-c3ccc(Br)cc3)no2)c1=O` displayed an RP-LC retention time of 1100 s.
Then `COc1cccc(Cn2c(N3CCSCC3)nc(C)cc2=O)c1`, with 869 s.
`Cc1oc(-c2ccccc2)nc1Cc1noc(-c2ccncc2)n1` yielded an RP-LC retention time of 920 s.
Then `COC(=O)c1ncn2c1C(=O)N(c1ccc(F)cc1)C(C)(C(=O)NCc1ccccc1)C2` (stereo unspecified), with 691 s; and `Cc1ccc(NC(=O)N2CCN(c3cc(C)nc(N4CCOCC4)n3)CC2)c(Cl)c1`, with 669 s; and `O=C(NCc1ccc(F)cc1F)C1CCN(C(=O)c2ncn3c2COC(c2ccccc2)C3)CC1` (stereo unspecified), with 784 s.
Compound `Cn1c(=O)c(N2CCC(NC(=O)Nc3ccccc3C(F)(F)F)CC2)nc2ccccc21` had an RP-LC retention time of 953 s.
Then `Cc1nc(-c2ccc(C(=O)NC(C)C)cc2)cs1`, with 731 s; and `CSc1ccccc1NC(=O)c1nnn(-c2nc3c(s2)CCCC3)c1C`, with 972 s; and `Cc1ccc(S(=O)(=O)C2CS(=O)(=O)CC2S(=O)(=O)c2ccc(C)cc2)cc1` (stereo unspecified), with 856 s.
Turning to `Cc1ccc(-c2noc(C3CC(=O)N(c4ccc(Cl)cc4)C3)n2)cc1` (stereo unspecified), the RP-LC retention time was found to be 1060 s.
On to `CN(CCNC(=O)CCCn1c2ccccc2c2cnn(C)c(=O)c21)Cc1ccccc1`, for which the RP-LC retention time is 652 s.
Then `COc1ccc(CNCCc2c(C)[nH]c3ccc(F)cc23)cc1OC`, with 571 s; and `Cc1ccc(-c2noc(C3CCCN3S(=O)(=O)c3ccc(C)c(Cl)c3)n2)cc1` (stereo unspecified), with 1290 s.
`COc1ccc(OC)c(CNC(=O)C2CCN(S(=O)(=O)c3ccc4c(c3)NC(=O)CO4)CC2)c1`: the RP-LC retention time worked out at 721 s.
Compound `O=C(N1CCC(c2nc(-c3ccccc3)no2)C1)C1(c2ccccc2)CC1` (stereo unspecified) registered an RP-LC retention time of 994 s.
With `COC(=O)CNC(=O)N1c2ccccc2CC1c1nc(C2CC2)no1` (stereo unspecified), the RP-LC retention time was found to be 815 s.
